# In the Kinase Knowledgebase extract (Sharma et al. 2016):
# pIC50: −log10 of the molar value.
# Target: EGFR (human) (UniProt P00533)
# Conditions: a431
# EGFR (human), sequence (P00533 whole entry, looked up): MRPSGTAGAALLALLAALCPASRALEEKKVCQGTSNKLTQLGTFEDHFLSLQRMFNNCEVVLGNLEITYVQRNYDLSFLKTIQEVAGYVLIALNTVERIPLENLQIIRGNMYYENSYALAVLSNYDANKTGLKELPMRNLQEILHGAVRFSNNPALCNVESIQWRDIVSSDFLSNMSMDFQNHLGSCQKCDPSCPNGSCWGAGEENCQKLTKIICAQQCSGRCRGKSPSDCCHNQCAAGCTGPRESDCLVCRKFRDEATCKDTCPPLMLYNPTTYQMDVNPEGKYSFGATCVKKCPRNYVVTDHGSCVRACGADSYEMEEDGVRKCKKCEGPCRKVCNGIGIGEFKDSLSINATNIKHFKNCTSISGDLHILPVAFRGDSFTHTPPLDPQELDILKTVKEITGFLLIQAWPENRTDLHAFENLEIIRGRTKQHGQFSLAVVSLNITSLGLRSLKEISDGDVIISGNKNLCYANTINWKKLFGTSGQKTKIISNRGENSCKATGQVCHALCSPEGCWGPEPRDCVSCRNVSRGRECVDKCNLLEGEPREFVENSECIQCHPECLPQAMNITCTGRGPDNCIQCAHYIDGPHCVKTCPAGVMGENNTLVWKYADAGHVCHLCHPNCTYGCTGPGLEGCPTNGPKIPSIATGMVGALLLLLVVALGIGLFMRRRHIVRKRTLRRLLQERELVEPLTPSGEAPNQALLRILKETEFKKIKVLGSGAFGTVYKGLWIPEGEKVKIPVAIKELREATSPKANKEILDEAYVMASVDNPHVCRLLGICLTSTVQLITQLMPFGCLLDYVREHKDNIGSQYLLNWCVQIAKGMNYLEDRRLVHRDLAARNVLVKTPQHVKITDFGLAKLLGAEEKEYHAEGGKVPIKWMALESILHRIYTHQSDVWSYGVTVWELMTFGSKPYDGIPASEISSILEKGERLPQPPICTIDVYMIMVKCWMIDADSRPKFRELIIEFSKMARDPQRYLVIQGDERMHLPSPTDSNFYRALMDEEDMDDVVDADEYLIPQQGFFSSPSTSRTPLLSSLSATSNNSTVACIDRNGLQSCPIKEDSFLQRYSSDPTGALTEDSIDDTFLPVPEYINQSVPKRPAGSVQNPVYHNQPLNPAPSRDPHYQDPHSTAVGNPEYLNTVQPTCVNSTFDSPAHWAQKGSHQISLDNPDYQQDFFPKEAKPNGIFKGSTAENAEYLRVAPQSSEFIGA
row,SMILES,pIC50
1,Cn1c(=O)n(C)c2cc3c(Nc4cccc(Br)c4)ncnc3cc21,< 5.00
2,Brc1cccc(Nc2ncnc3c2ccc2ccccc23)c1,< 5.00
3,Cc1cccc(Nc2ncnc3c2ccc2ccccc23)c1,< 5.00
4,Cn1c(=O)n(C)c2cc3c(Nc4cccc(C(F)(F)F)c4)ncnc3cc21,< 5.00
5,FC(F)(F)c1cccc(Nc2ncnc3c2ccc2ccccc23)c1,< 5.00

# Second part, the compound after the results:
row,pIC50,SMILES
1,< 5.00,Cc1cccc(Nc2ncnc3cc4c(cc23)OCCO4)n1
2,< 5.00,CS(=O)(=O)Nc1cccc(Nc2ncnc3cc4c(cc23)OCO4)c1
3,< 5.00,CS(=O)(=O)Nc1cccc(Nc2ncnc3cc4c(cc23)OCCO4)c1
4,< 5.00,Cc1cccc(Nc2ncnc3cc4c(cc23)n(C)c(=O)n4C)c1
5,< 5.00,Cc1ccnc(Nc2ncnc3cc4c(cc23)OCO4)c1
6,< 5.00,Cc1cccc(Nc2ncnc3cc4c(cc23)OCO4)n1
